Experiment [1] concerns EMT6. Nature of the experiment: In vitro phototoxicity in EMT-6 cells at 1 uM after 6 hr MTT assay; Not active. The class given is functional, cell-based. The note with it: Mus musculus, tested as the Zn salt or complex.
Experiment [2] deals with EMT6. Nature of the experiment: In vitro phototoxicity in EMT-6 cells at 1 uM after 24 hr r MTT assay; Not active. Particulars: Mus musculus, tested as the Zn salt or complex. The format is functional, cell-based.
Experiment [3] concerns the target Estrogen receptor (Homo sapiens) (UniProt Q92731+P03372). The experiment is described as follows: Displacement of [3H]estradiol from estrogen receptor. The format is protein assay. The note with it: tested as the Zn salt or complex.
Experiment [4] has as its system EMT6. The experiment is described as follows: In vitro phototoxicity in EMT-6 cells at 1 uM after 6 hr MTT assay. The class given is functional, Mus musculus.
Experiment [5] deals with EMT6. Nature of the experiment: In vitro phototoxicity in EMT-6 cells at 1 uM after 24 hr r MTT assay. The class given is functional, Mus musculus.

Each structure is given as a SMILES string. Activity calls are given as the source filed them. No cut-off for these calls is given here.

`CCCCc1ccc2c(c1)-c1nc-2nc2[nH]c(nc3nc(nc4[nH]c(n1)c1ccc(CCCC)cc41)-c1ccc(C#CC#CCCCC[C@@]4(O)CC[C@H]5[C@@H]6CCc7cc(O)ccc7[C@H]6CC[C@@]54C)cc1-3)c1ccc(CCCC)cc21`: the LD90 entry in the experiment on EMT6 [1] and in the experiment with EMT6 [2] was “inactive” in each case. For the same compound, the relative binding affinity (RBA) in experiment [3] was 3.08.

In the case of `CCCCc1ccc2c(c1)-c1nc-2nc2[nH]c(nc3nc(nc4[nH]c(n1)c1ccc(CCCC)cc41)-c1ccc(C#CC#Cc4cccc([C@@]5(O)CC[C@H]6[C@@H]7CCc8cc(O)ccc8[C@H]7CC[C@@]65C)c4)cc1-3)c1ccc(CCCC)cc21`, the LD90 entry with EMT6 [1] and in the experiment with EMT6 [2] was “inactive” throughout. For the same compound, the relative binding affinity (RBA) in experiment [3] turned out to be 8.54.

As to `C[C@]12CC[C@@H]3c4ccc(O)cc4CC[C@H]3[C@@H]1CC[C@]2(O)CCCCC#CC#Cc1ccc2c(c1)-c1nc-2nc2[nH]c(nc3nc(nc4[nH]c(n1)c1ccc(S(=O)(=O)[O-])cc41)-c1ccc(S(=O)(=O)[O-])cc1-3)c1ccc(S(=O)(=O)[O-])cc21.[Na+].[Na+].[Na+].[Zn]`, the LD90 is 7.3 J cm**-2 in the experiment with EMT6 [4] and 2.9 J cm**-2 in the experiment on EMT6 [5]. Also, the relative binding affinity (RBA) in experiment [3] was 1.26.

As to `CCCCc1ccc2c(c1)-c1nc-2nc2[nH]c(nc3nc(nc4[nH]c(n1)c1ccc(CCCC)cc41)-c1ccc(C#C[C@@]4(O)CC[C@H]5[C@@H]6CCc7cc(O)ccc7[C@H]6CC[C@@]54C)cc1-3)c1ccc(CCCC)cc21`, the LD90 entry with EMT6 [1] and in the experiment on EMT6 [2] was “inactive” in each case. The relative binding affinity (RBA) in experiment [3] turned out to be 1.35.

Regarding `CCCCc1ccc2cc3c(cc2c1)-c1nc-3nc2[nH]c(nc3nc(nc4[nH]c(n1)c1cc5ccc(CCCC)cc5cc41)-c1ccc(C#C[C@@]4(O)CC[C@H]5[C@@H]6CCc7cc(O)ccc7[C@H]6CC[C@@]54C)cc1-3)c1cc3ccc(CCCC)cc3cc21`, the LD90 result with EMT6 [1] and in the experiment on EMT6 [2] was “inactive” throughout. For the same compound, the relative binding affinity (RBA) in experiment [3] worked out at 10.4.

Turning to `C[C@]12CC[C@@H]3c4ccc(O)cc4CC[C@H]3[C@@H]1CC[C@]2(O)C#Cc1ccc2c(c1)-c1nc-2nc2[nH]c(nc3nc(nc4[nH]c(n1)c1ccc(S(=O)(=O)[O-])cc41)-c1ccc(S(=O)(=O)[O-])cc1-3)c1cc(S(=O)(=O)[O-])ccc21.[Na+].[Na+].[Na+].[Zn]`, the LD90 was determined as 7 J cm**-2 in the experiment with EMT6 [4] and 5.1 J cm**-2 in the experiment on EMT6 [5]. Also, in experiment [3], the relative binding affinity (RBA) was determined as 1.64.

For `C[C@]12CC[C@@H]3c4ccc(O)cc4CC[C@H]3[C@@H]1CC[C@]2(O)c1ccc(C#CC#Cc2ccc3c(c2)-c2nc-3nc3[nH]c(nc4nc(nc5[nH]c(n2)c2ccc(S(=O)(=O)[O-])cc52)-c2ccc(S(=O)(=O)[O-])cc2-4)c2ccc(S(=O)(=O)[O-])cc32)cc1.[Na+].[Na+].[Na+].[Zn]`, the LD90 in the experiment with EMT6 [4] was determined as 10.4 J cm**-2; with EMT6 [5], 5.3 J cm**-2. Moreover, the relative binding affinity (RBA) in experiment [3] amounted to 1.22.

For the compound `CCCCc1ccc2c(c1)-c1nc-2nc2[nH]c(nc3nc(nc4[nH]c(n1)c1ccc(CCCC)cc41)-c1cccc(C#C[C@@]4(O)CC[C@H]5[C@@H]6CCc7cc(O)ccc7[C@H]6CC[C@@]54C)c1-3)c1ccc(CCCC)cc21`, the LD90 result in the experiment with EMT6 [1] and in the experiment on EMT6 [2] was “inactive” each time. Moreover, in experiment [3], the relative binding affinity (RBA) is 12.9.

Consider `C[C@]12CC[C@@H]3c4ccc(O)cc4CC[C@H]3[C@@H]1CC[C@]2(O)CCCCC#CC#Cc1cccc2c1-c1nc-2nc2[nH]c(nc3nc(nc4[nH]c(n1)c1ccc(S(=O)(=O)[O-])cc41)-c1ccc(S(=O)(=O)[O-])cc1-3)c1ccc(S(=O)(=O)[O-])cc21.[Na+].[Na+].[Na+].[Zn]`, for which the values for the LD90 in the experiment on EMT6 [4] and with EMT6 [5] were 12 J cm**-2 and 4.3 J cm**-2, respectively. The relative binding affinity (RBA) in experiment [3] was determined as 0.56.

Turning to `C[C@]12CC[C@@H]3c4ccc(O)cc4CC[C@H]3[C@@H]1CC[C@]2(O)c1cccc(C#CC#Cc2ccc3c(c2)-c2nc-3nc3[nH]c(nc4nc(nc5[nH]c(n2)c2ccc(S(=O)(=O)[O-])cc52)-c2ccc(S(=O)(=O)[O-])cc2-4)c2ccc(S(=O)(=O)[O-])cc32)c1.[Na+].[Na+].[Na+].[Zn]`, the LD90 came to 10.4 J cm**-2 in the experiment on EMT6 [4] and 4 J cm**-2 in the experiment on EMT6 [5]. Besides, in experiment [3], the relative binding affinity (RBA) worked out at 0.3.

For the compound `C[C@]12CC[C@@H]3c4ccc(O)cc4CC[C@H]3[C@@H]1CC[C@]2(O)C#Cc1cccc2cc3c(cc12)-c1nc-3nc2[nH]c(nc3nc(nc4[nH]c(n1)c1ccc(S(=O)(=O)[O-])cc41)-c1ccc(S(=O)(=O)[O-])cc1-3)c1cc(S(=O)(=O)[O-])ccc21.[Na+].[Na+].[Na+].[Zn]`, the figures for the LD90 in the experiment with EMT6 [4] and with EMT6 [5] were 12 J cm**-2 and 3 J cm**-2, respectively. In addition, the relative binding affinity (RBA) in experiment [3] stood at 1.24.
